Experimental data published in ChEMBL document CHEMBL5154863, “Design and synthesis of quinolinium-based derivatives targeting FtsZ for antibacterial evaluation and mechanistic study” (Eur J Med Chem, 2022).
The source made the active and inactive calls. The rule behind the calls is not given here.

Tests used:
Enterococcus faecium [1] = experiment: Antibacterial activity against vancomycin-resistant Enterococcus faecium clinical isolate assessed as inhibition of bacterial growth incubated for 20 to 24 hrs by broth micro dilution method; format: functional; conditions: time 20-24 hrs
Staphylococcus aureus [2] = experiment: Induction of morphological changes in Staphylococcus aureus ATCC 29213 assessed as enlargement of cell size at 0.5 times MIC for 4 hrs by microscopic analysis; format: functional, organism-based
Staphylococcus aureus [3] = experiment: Antibacterial activity against methicillin-resistant Staphylococcus aureus ATCC 43300 assessed as inhibition of bacterial growth incubated for 20 to 24 hrs by broth micro dilution method; format: functional; conditions: time 20-24 hrs
Enterococcus faecium [4] = experiment: Antibacterial activity against Enterococcus faecium ATCC 49624 assessed as inhibition of bacterial growth incubated for 20 to 24 hrs by broth micro dilution method; format: functional; conditions: time 20-24 hrs
[5] = tested on: Staphylococcus epidermidis; experiment: Antibacterial activity against Staphylococcus epidermidis ATCC 12228 assessed as inhibition of bacterial growth incubated for 20 to 24 hrs by broth micro dilution method; format: functional; conditions: time 20-24 hrs
Staphylococcus aureus [6] = experiment: Antibacterial activity against methicillin-resistant Staphylococcus aureus ATCC BAA-1720 assessed as inhibition of bacterial growth incubated for 20 to 24 hrs by broth micro dilution method; format: functional; conditions: time 20-24 hrs
[7] = Ratio of MBC for bactericidal activity against Staphylococcus aureus ATCC 43300 to MIC for antibacterial activity against Staphylococcus aureus ATCC 43300; format: functional
Staphylococcus aureus [8] = experiment: Antibacterial activity against methicillin-resistant Staphylococcus aureus ATCC BAA41 assessed as fractional inhibitory concentration index incubated for 24 hrs by checker board assay; format: functional
Escherichia coli [9] = experiment: Antibacterial activity against Escherichia coli ATCC 25922 assessed as inhibition of bacterial growth incubated for 20 to 24 hrs by broth micro dilution method; format: functional; conditions: time 20-24 hrs
Staphylococcus aureus [10] = experiment: Bactericidal activity against Staphylococcus aureus ATCC 29213 assessed as inhibition of bacterial growth incubated for 24 hrs by resazurin dye based microtiter plate assay; format: functional
Staphylococcus aureus [11] = experiment: Antibacterial activity against methicillin-resistant Staphylococcus aureus ATCC 33592 assessed as inhibition of bacterial growth incubated for 20 to 24 hrs by broth micro dilution method; format: functional; conditions: time 20-24 hrs
Enterococcus faecium [12] = experiment: Antibacterial activity against vancomycin resistant Enterococcus faecium ATCC 700221 assessed as inhibition of bacterial growth incubated for 20 to 24 hrs by broth micro dilution method; format: functional; conditions: time 20-24 hrs
Klebsiella pneumoniae = experiment: Antibacterial activity against NDM-1 expressing Klebsiella pneumoniae ATCC BAA 2470 assessed as inhibition of bacterial growth incubated for 20 to 24 hrs by broth micro dilution method; format: functional; conditions: time 20-24 hrs
Escherichia coli [13] = experiment: Antibacterial activity against NDM-1 expressing Escherichia coli ATCC BAA2469 assessed as inhibition of bacterial growth incubated for 20 to 24 hrs by broth micro dilution method; format: functional; conditions: time 20-24 hrs
Staphylococcus aureus [14] = experiment: Antibacterial activity against methicillin-resistant Staphylococcus aureus ATCC BAA41 assessed as inhibition of bacterial growth incubated for 24 hrs by checker board assay; format: functional
Bacillus subtilis [15] = experiment: Bactericidal activity against Bacillus subtilis CMCC (B) 63501 assessed as inhibition of bacterial growth incubated for 24 hrs by resazurin dye based microtiter plate assay; format: functional
[16] = molecular target: T1, Cell division protein FtsZ (Staphylococcus aureus) (UniProt P0A031); experiment: Binding affinity to Staphylococcus aureus FtsZ assessed as decrease in random coil structure at 8 ug/ml incubated for 30 mins by circular dichroism method; conditions: dose 8.0 µg/ml
T1 sequence (whole entry): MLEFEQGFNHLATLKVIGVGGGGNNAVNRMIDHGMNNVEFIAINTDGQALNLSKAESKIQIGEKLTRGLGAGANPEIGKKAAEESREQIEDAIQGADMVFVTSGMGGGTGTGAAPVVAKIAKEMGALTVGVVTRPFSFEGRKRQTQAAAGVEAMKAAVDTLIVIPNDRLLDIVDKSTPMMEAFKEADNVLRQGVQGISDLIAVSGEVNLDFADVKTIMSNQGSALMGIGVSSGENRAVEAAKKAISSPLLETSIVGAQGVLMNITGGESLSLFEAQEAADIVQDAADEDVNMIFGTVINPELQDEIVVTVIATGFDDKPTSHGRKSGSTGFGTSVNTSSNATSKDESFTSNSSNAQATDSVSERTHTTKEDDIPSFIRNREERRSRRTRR

Staphylococcus aureus [17] = experiment: Bactericidal activity against Staphylococcus aureus ATCC 43300 assessed as inhibition of bacterial growth incubated for 24 hrs by resazurin dye based microtiter plate assay; format: functional
Bacillus subtilis [18] = experiment: Antibacterial activity against Bacillus subtilis CMCC (B) 63501 assessed as inhibition of bacterial growth incubated for 20 to 24 hrs by broth micro dilution method; format: functional; conditions: time 20-24 hrs
Enterococcus faecium [19] = experiment: Bactericidal activity against Enterococcus faecium ATCC 700221 assessed as inhibition of bacterial growth incubated for 24 hrs by resazurin dye based microtiter plate assay; format: functional
Staphylococcus aureus [20] = experiment: Synergistic antibacterial activity against methicillin-resistant Staphylococcus aureus ATCC BAA41 assessed as inhibition of bacterial growth incubated for 24 hrs in presence of methicillin by checker board assay; format: functional
[21] = molecular target: T1, Cell division protein FtsZ (Staphylococcus aureus); experiment: Binding affinity to Staphylococcus aureus FtsZ assessed as increase in alpha helix structure at 8 ug/ml incubated for 30 mins by circular dichroism method; conditions: dose 8.0 µg/ml
Staphylococcus aureus [22] = experiment: Antibacterial activity against Staphylococcus aureus ATCC 29213 assessed as inhibition of bacterial growth incubated for 20 to 24 hrs by broth micro dilution method; format: functional; conditions: time 20-24 hrs
Bacillus subtilis [23] = experiment: Induction of morphological changes in Bacillus subtilis CMCC (B) 63501 assessed as elongation of bacterial cell at 0.5 times MIC for 4 hrs (reference value: 3 to 5 um) by microscopic analysis; format: functional
[24] = molecular target: T2, Cell division protein FtsZ (Staphylococcus aureus, UniProt P0A031); experiment: Binding affinity to Staphylococcus aureus FtsZ assessed as dissociation constant by isothermal titration calorimetry
T2 sequence (P0A031 whole entry): T1 sequence (whole entry)

Acinetobacter baumannii = experiment: Antibacterial activity against multi-drug resistant Acinetobacter baumannii ATCC 19606 assessed as inhibition of bacterial growth incubated for 20 to 24 hrs by broth micro dilution method; format: functional; conditions: time 20-24 hrs
Escherichia coli [25] = experiment: Antibacterial activity against Escherichia coli ATCC 8739 assessed as inhibition of bacterial growth incubated for 20 to 24 hrs by broth micro dilution method; format: functional; conditions: time 20-24 hrs
[26] = Ratio of MBC for bactericidal activity against Bacillus subtilis CMCC (B) 63501 to MIC for antibacterial activity against Bacillus subtilis CMCC (B) 63501; format: functional
[27] = Ratio of MBC for bactericidal activity against Staphylococcus aureus ATCC 29213 to MIC for antibacterial activity against Staphylococcus aureus ATCC 29213; format: functional
[28] = Ratio of MBC for bactericidal activity against Enterococcus faecium ATCC 700221 to MIC for antibacterial activity against Enterococcus faecium ATCC 700221; format: functional
[29] = molecular target: T1, Cell division protein FtsZ (Staphylococcus aureus); experiment: Binding affinity to Staphylococcus aureus FtsZ assessed as decrease in beta turn structure at 8 ug/ml incubated for 30 mins by circular dichroism method; conditions: dose 8.0 µg/ml
[30] = molecular target: T1, Cell division protein FtsZ (Staphylococcus aureus); experiment: Induction of Staphylococcus aureus FtsZ polymerization expressed in Escherichia coli BL21 (DE3) assessed as increase in absorbance at 2 to 8 ug/ml in presence of GTP by microplate reader method; conditions: dose 2-8 µg/ml, DDE = dose-dependent effect
[31] = molecular target: T1, Cell division protein FtsZ (Staphylococcus aureus); experiment: Binding affinity to Staphylococcus aureus FtsZ assessed as equilibrium binding constant by isothermal titration calorimetry
[32] = molecular target: T1, Cell division protein FtsZ (Staphylococcus aureus); experiment: Binding affinity to Staphylococcus aureus FtsZ assessed as decrease in other structure at 8 ug/ml incubated for 30 mins by circular dichroism method; conditions: dose 8.0 µg/ml
Pseudomonas aeruginosa = experiment: Antibacterial activity against […] Pseudomonas aeruginosa ATCC 27853 assessed as inhibition of bacterial growth incubated for 20 to 24 hrs by broth micro dilution method; format: functional; conditions: time 20-24 hrs
Enterococcus faecalis = experiment: Antibacterial activity against Enterococcus faecalis ATCC 29212 assessed as inhibition of bacterial growth incubated for 20 to 24 hrs by broth micro dilution method; format: functional; conditions: time 20-24 hrs
Staphylococcus aureus [33] = experiment: Antibacterial activity against vancomycin-intermediate Staphylococcus aureus Mu50 assessed as inhibition of bacterial growth incubated for 20 to 24 hrs by broth micro dilution method; format: functional; conditions: time 20-24 hrs

Q: Which MIC (Enterococcus faecium [1]) does the source give for CCCCCNc1cc(/C=C/c2ccc(N(C)C)cc2)[n+](C)c2ccccc12.[I-] here?
A: Its MIC is 4 mg/L.

Q: What about the Activity (Staphylococcus aureus [2]) of the same compound?
A: Its Activity is “Active”.

Q: What about the MIC (Staphylococcus aureus [3]) of the same compound?
A: Its MIC is 2 mg/L.

Q: And the MIC (Enterococcus faecium [4])?
A: The MIC was 8 mg/L.

Q: And the MIC [5]?
A: Its MIC is 1 mg/L.

Q: And the MIC (Staphylococcus aureus [6])?
A: The MIC was 1 mg/L.

Q: And the Ratio [7]?
A: The Ratio was 4.

Q: And the “fractional inhibitory concentration index (FICI)” value (Staphylococcus aureus [8])?
A: The value was 0.375.

Q: And the MIC (Escherichia coli [9])?
A: The MIC was 64 mg/L.

Q: What about the MBC (Staphylococcus aureus [10]) of the same compound?
A: The MBC was 8 mg/L.

Q: What about the MIC (Staphylococcus aureus [11]) of the same compound?
A: The MIC was 2 mg/L.

Q: What about the MIC (Enterococcus faecium [12]) of the same compound?
A: The MIC was 4 mg/L.

Q: What about the MIC (Klebsiella pneumoniae) of the same compound?
A: Its MIC is over 64 mg/L.

Q: And the MIC (Escherichia coli [13])?
A: Its MIC is over 64 mg/L.

Q: What about the MIC (Staphylococcus aureus [14]) of the same compound?
A: The MIC was 4 mg/L.

Q: What about the MBC (Bacillus subtilis [15]) of the same compound?
A: The MBC was 4 mg/L.

Q: And the Activity [16]?
A: The Activity was “Active”.

Q: What about the MBC (Staphylococcus aureus [17]) of the same compound?
A: The MBC was 8 mg/L.

Q: What about the MIC (Bacillus subtilis [18]) of the same compound?
A: Its MIC is 4 mg/L.

Q: What about the MBC (Enterococcus faecium [19]) of the same compound?
A: Its MBC is 8 mg/L.

Q: What about the MIC (Staphylococcus aureus [20]) of the same compound?
A: Its MIC is 0.5 mg/L.

Q: And the Activity [21]?
A: Its Activity is “Active”.

Q: What about the MIC (Staphylococcus aureus [22]) of the same compound?
A: Its MIC is 2 mg/L.

Q: And the Activity (Bacillus subtilis [23])?
A: Its Activity is 30 um.

Q: What about the Kd [24] of the same compound?
A: The Kd was 2.38 µM.

Q: What about the MIC (Acinetobacter baumannii) of the same compound?
A: The MIC was over 64 mg/L.

Q: And the MIC (Escherichia coli [25])?
A: The MIC was over 64 mg/L.

Q: And the Ratio [26]?
A: Its Ratio is 1.

Q: What about the Ratio [27] of the same compound?
A: Its Ratio is 4.

Q: What about the Ratio [28] of the same compound?
A: The Ratio was 2.

Q: What about the Activity [29] of the same compound?
A: Its Activity is “Active”.

Q: And the Activity [30]?
A: Its Activity is “Dde”.

Q: What about the Kb [31] of the same compound?
A: The Kb was 2.01 10^5/M.

Q: What about the Activity [32] of the same compound?
A: The Activity was “Active”.

Q: And the MIC (Pseudomonas aeruginosa)?
A: Its MIC is over 64 mg/L.

Q: And the MIC (Enterococcus faecalis)?
A: Its MIC is 4 mg/L.

Q: And the MIC (Staphylococcus aureus [33])?
A: Its MIC is 4 mg/L.

Q: For CN(C)c1ccc(/C=C/c2cc(N3CCCCC3)[n+](C)c3ccccc23)cc1.[I-], which MIC (Enterococcus faecium [1]) is on record?
A: Its MIC is 8 mg/L.

Q: And the MIC (Staphylococcus aureus [3])?
A: Its MIC is 4 mg/L.

Q: What about the MIC (Enterococcus faecium [4]) of the same compound?
A: The MIC was 8 mg/L.

Q: What about the MIC [5] of the same compound?
A: The MIC was 1 mg/L.

Q: What about the MIC (Staphylococcus aureus [6]) of the same compound?
A: The MIC was 4 mg/L.

Q: What about the MIC (Escherichia coli [9]) of the same compound?
A: The MIC was 16 mg/L.

Q: What about the MIC (Staphylococcus aureus [11]) of the same compound?
A: The MIC was 8 mg/L.

Q: And the MIC (Enterococcus faecium [12])?
A: Its MIC is 2 mg/L.

Q: And the MIC (Klebsiella pneumoniae)?
A: Its MIC is over 64 mg/L.

Q: And the MIC (Escherichia coli [13])?
A: The MIC was 64 mg/L.

Q: What about the MIC (Bacillus subtilis [18]) of the same compound?
A: The MIC was 4 mg/L.

Q: And the MIC (Staphylococcus aureus [22])?
A: Its MIC is 2 mg/L.

Q: What about the MIC (Acinetobacter baumannii) of the same compound?
A: The MIC was over 64 mg/L.

Q: What about the MIC (Escherichia coli [25]) of the same compound?
A: Its MIC is 32 mg/L.

Q: And the MIC (Pseudomonas aeruginosa)?
A: The MIC was over 64 mg/L.

Q: And the MIC (Enterococcus faecalis)?
A: The MIC was 16 mg/L.

Q: What about the MIC (Staphylococcus aureus [33]) of the same compound?
A: Its MIC is 4 mg/L.
